Data on 19 compounds can be found in patent US9809582B2, “Aminoester derivatives” (CHIESI FARMACEUTICI S.p.A., priority 2015, dated 2017).

Where two headings read alike, the source gives them in different places. Some results are limits rather than exact numbers.

Usually IC50 stands for the concentration that gives 50% inhibition.

One assay has as its target Human recombinant PDE4B2 (Homo sapiens (Human), UniProt Q07343). The assay can be described thus: PDE4B2 HTRF assay. Format: biochemical. The method, then:
PDE4B2 activity is detected using the LANCE Ultra cAMP homogeneous time resolved fluorescence resonance energy transfer (TR-FRET) assay from Perkin Elmer. The assay is based on the competition between the europium (Eu) chelate-labeled cAMP tracer and sample cAMP for binding sites on cAMP-specific monoclonal antibodies (mAb) labelled with the ULight™ dye. The assay is carried out in 384-well low volume plates in a volume of 10 μl. Human recombinant PDE4B2 (80 pM) is incubated for 2 h with 3 nM cAMP in buffer containing 1×HBSS, 5 mM HEPES, 3 mM MgCl2, 0.1% BSA, pH 7.4 with or without test compounds. The enzymatic reactions are efficiently stopped by the addition of 500 μM IBMX present in the combined Stop/Detection buffer containing europium (Eu) chelate-labeled cAMP tracer and cAMP-specific monoclonal antibodies (mAb) labelled with the ULight™ dye. […] IC50 values are determined from competition curves using a non-linear curve fitting program.
(TR-FRET usually uses a lanthanide donor and a delayed reading to cut background.)

Another assay deals with Human M3 receptor (Homo sapiens (Human), UniProt P20309). Put plainly: M3 receptor radioligand binding assay. The method, then:
M3 Receptor Radioligand Binding Assay:
The assay is carried out in 96-well polypropylene plates in a volume of 250 μl. […] The final assay concentration of DMSO is 0.5% (v/v). The plates are sealed and incubated for 2 h at room temperature on an orbital shaker (slow speed). Membranes are harvested onto 96-well unifilter GF/C filter plates pre-treated with 0.5% polyethyleneimine (v/v), using a filter manifold, washed four times with […] of assay buffer. The plates are dried before addition of 50 μl of microscint-0, sealed then read in a Trilux Microbeta scintillation counter. IC50 values are determined from competition curves using a non-linear curve fitting program. Ki values are calculated from IC50 values by the Cheng and Prusoff equation.

Where [1] appears, read: M3 Receptor radioligand binding assay, read-out: M3 IC50 Activity.
[2] abbreviates: PDE4B2 HTRF assay, read-out: PDE4B2 IC50 Activity.

Chain of Human recombinant PDE4B2 (Q07343 other isoform, or with tags, fused parts or gaps): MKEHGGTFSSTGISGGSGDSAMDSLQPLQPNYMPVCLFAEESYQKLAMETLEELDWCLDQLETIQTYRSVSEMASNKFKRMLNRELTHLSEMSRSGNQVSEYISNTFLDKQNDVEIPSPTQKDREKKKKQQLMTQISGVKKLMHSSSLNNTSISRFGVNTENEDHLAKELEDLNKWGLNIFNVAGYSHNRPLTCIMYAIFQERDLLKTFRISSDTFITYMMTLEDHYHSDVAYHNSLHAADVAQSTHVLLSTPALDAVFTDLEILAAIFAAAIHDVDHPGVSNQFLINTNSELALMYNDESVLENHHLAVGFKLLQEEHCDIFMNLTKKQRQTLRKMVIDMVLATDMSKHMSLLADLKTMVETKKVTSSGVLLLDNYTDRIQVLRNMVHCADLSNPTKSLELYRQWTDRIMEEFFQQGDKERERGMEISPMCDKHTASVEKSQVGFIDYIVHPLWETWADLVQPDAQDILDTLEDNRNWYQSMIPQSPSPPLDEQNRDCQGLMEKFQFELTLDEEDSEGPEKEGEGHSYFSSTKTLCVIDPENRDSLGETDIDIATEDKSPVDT
Chain of Human M3 receptor (P20309 whole entry): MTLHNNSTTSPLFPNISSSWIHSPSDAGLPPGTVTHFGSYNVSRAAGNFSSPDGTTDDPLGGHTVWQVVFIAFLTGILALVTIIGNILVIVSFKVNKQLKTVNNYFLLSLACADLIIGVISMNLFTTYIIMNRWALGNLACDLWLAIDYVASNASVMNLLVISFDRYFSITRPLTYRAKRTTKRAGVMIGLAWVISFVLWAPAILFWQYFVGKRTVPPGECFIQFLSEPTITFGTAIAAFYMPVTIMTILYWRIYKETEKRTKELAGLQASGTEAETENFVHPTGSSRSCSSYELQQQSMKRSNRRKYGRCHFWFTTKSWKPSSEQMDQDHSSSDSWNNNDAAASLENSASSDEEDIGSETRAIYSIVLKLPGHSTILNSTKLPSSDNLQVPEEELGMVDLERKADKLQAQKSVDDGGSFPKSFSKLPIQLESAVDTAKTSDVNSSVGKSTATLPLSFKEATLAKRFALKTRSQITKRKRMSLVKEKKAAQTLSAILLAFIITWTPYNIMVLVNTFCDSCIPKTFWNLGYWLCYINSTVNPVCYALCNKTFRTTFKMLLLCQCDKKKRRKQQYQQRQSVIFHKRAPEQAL

Take `COc1ccc([C@H](Cc2c(Cl)c[n+]([O-])cc2Cl)OC(=O)c2ccc(CN(C)CC(C)(C(=O)O[C@H]3CN4CCC3CC4)c3ccccc3)s2)cc1OC` (stereo partly drawn) [Example 27, [(1S)-2-(3,5-dichloro-1-oxido-pyridin-1-ium-4-yl)-1-(3,4-dimethoxyphenyl)ethyl] 5-[[methyl-[2-methyl-3-oxo-2-phenyl-3-[(3R)-quinuclidin-3-yl]oxy-propyl]amino]methyl]thiophene-2-carboxylate]: at Human recombinant PDE4B2 (read-out: PDE4B2 IC50 Activity), the IC50 fell in the range of 1 to 10 nM.
Consider `COc1ccc([C@H](Cc2c(Cl)c[n+]([O-])cc2Cl)OC(=O)c2ccc(CNCC(C)(C(=O)OC3CCN(C)CC3)c3ccccc3)s2)cc1OC` (stereo partly drawn) [Example 8, [(1S)-2-(3,5-dichloro-1-oxido-pyridin-1-ium-4-yl)-1-(3,4-dimethoxyphenyl)ethyl] 5-[[[2-methyl-3-[(1-methyl-4-piperidyl)oxy]-3-oxo-2-phenyl-propyl]amino]methyl]thiophene-2-carboxylate], for which the IC50 on Human M3 receptor (setting [1]) lay within 10 to 100 nM.
Take `COc1ccc([C@H](Cc2c(Cl)c[n+]([O-])cc2Cl)OC(=O)c2ccc(CNCC(C)(C(=O)OC3CCN(C)CC3)c3ccccc3)s2)cc1OC` (stereo partly drawn) [Example 24, [(1S)-2-(3,5-dichloro-1-oxido-pyridin-1-ium-4-yl)-1-(3,4-dimethoxyphenyl)ethyl] 5-[[[2-methyl-3-[(1-methyl-4-piperidyl)oxy]-3-oxo-2-phenyl-propyl]amino]methyl]thiophene-2-carboxylate]: the half-inhibitory concentration (IC50) on Human M3 receptor (setting [1]) is 10 to 100 nM.
Take `COc1ccc([C@H](Cc2c(Cl)c[n+]([O-])cc2Cl)OC(=O)c2ccc(CN(C)CC(C)(C(=O)O[C@H]3CN4CCC3CC4)c3ccccc3)s2)cc1OC` (stereo partly drawn) [Example 10, [(1S)-2-(3,5-dichloro-1-oxido-pyridin-1-ium-4-yl)-1-(3,4-dimethoxyphenyl)ethyl]-5-[[methyl-[2-methyl-3-oxo-2-phenyl-3-[(3R)-quinuclidin-3-yl]oxy-propyl]amino]methyl]thiophene-2-carboxylate]: the concentration for half-maximal inhibition (IC50) on Human recombinant PDE4B2 and at Human M3 receptor (M3 IC50 Activity) was 1 to 10 nM throughout.
As for `COc1ccc([C@H](Cc2c(Cl)c[n+]([O-])cc2Cl)OC(=O)c2ccc(CNCC(C)(C(=O)OCCN(C)C)c3ccccc3)s2)cc1OC` (single isomer, unassigned) [Example 28], the IC50 on Human M3 receptor (setting [1]) was 10 to 100 nM.
Take `COc1ccc([C@H](Cc2c(Cl)c[n+]([O-])cc2Cl)OC(=O)c2ccc(CNCC(C(=O)O[C@H]3CN4CCC3CC4)c3ccccc3)s2)cc1OC` (stereo partly drawn) [Example 1, [(1S)-2-(3,5-dichloro-1-oxido-pyridin-1-ium-4-yl)-1-(3,4-dimethoxyphenyl)ethyl] 5-[[[3-oxo-2-phenyl-3-[(3R)-quinuclidin-3-yl]oxy-propyl]amino]methyl]thiophene-2-carboxylate]: the half-maximal inhibitory concentration (IC50) on Human recombinant PDE4B2 and at Human M3 receptor (M3 IC50 Activity) was 1 to 10 nM in each case.
In the case of `COc1ccc([C@H](Cc2c(Cl)c[n+]([O-])cc2Cl)OC(=O)c2ccc(CNCC(C(=O)O[C@H]3CN4CCC3CC4)c3ccccc3)cc2)cc1OC` (stereo partly drawn) [Example 2, [(1S)-2-(3,5-dichloro-1-oxido-pyridin-1-ium-4-yl)-1-(3,4-dimethoxyphenyl)ethyl] 4-[[[3-oxo-2-phenyl-3-[(3R)-quinuclidin-3-yl]oxy-propyl]amino]methyl]benzoate], the half-inhibitory concentration (IC50) at Human recombinant PDE4B2 and at Human M3 receptor (M3 IC50 Activity) was 1 to 10 nM throughout.
On to `COc1ccc([C@H](Cc2c(Cl)c[n+]([O-])cc2Cl)OC(=O)c2ccc(CNC3CC(C(=O)OC4CCN(C)CC4)(c4ccccc4)C3)s2)cc1OC` (stereo partly drawn) [Example 32, [(1S)-2-(3,5-dichloro-1-oxido-pyridin-1-ium-4-yl)-1-(3,4-dimethoxyphenyl)ethyl] 5-[[[3-[(1-methyl-4-piperidyl)oxycarbonyl]-3-phenyl-cyclobutyl]amino]methyl]-thiophene-2-carboxylate], for which the IC50 on Human recombinant PDE4B2 (setting [2]) was < 1 nM; at Human M3 receptor (setting [1]), 10 to 100 nM.
In the same order, the values of `COc1ccc([C@H](Cc2c(Cl)c[n+]([O-])cc2Cl)OC(=O)c2ccc(CNC3CC(C(=O)OC4CCN(C)CC4)(c4ccccc4)C3)s2)cc1OC` (single isomer, unassigned) [Example 34] are 1 to 10 nM and 10 to 100 nM.
In the case of `COc1ccc([C@H](Cc2c(Cl)c[n+]([O-])cc2Cl)OC(=O)c2ccc(CNCC(C)(C(=O)OCCN(C)C)c3ccccc3)s2)cc1OC` (stereo partly drawn) [Example 9, [(1S)-2-(3,5-dichloro-1-oxido-pyridin-1-ium-4-yl)-1-(3,4-dimethoxyphenyl)ethyl] 5-[[[3-(2-dimethylaminoethyloxy)-2-methyl-3-oxo-2-phenyl-propyl]amino]methyl]thiophene-2-carboxylate], the IC50 on Human M3 receptor (setting [1]) was in the range of 10 to 100 nM.
Consider `COc1ccc([C@H](Cc2c(Cl)c[n+]([O-])cc2Cl)OC(=O)c2ccc(CNCC(C)(C(=O)O[C@H]3CN4CCC3CC4)c3ccccc3)s2)cc1OC` (stereo partly drawn) [Example 31, [(1S)-2-(3,5-dichloro-1-oxido-pyridin-1-ium-4-yl)-1-(3,4-dimethoxyphenyl)ethyl] 5-[[[2-methyl-3-oxo-2-phenyl-3-[(3R)-quinuclidin-3-yl]oxy-propyl]amino]methyl]thiophene-2-carboxylate], for which the IC50 at Human recombinant PDE4B2 was 1 to 10 nM; at Human M3 receptor (M3 IC50 Activity) it was 10 to 100 nM.
Regarding `COc1ccc([C@H](Cc2c(Cl)c[n+]([O-])cc2Cl)OC(=O)c2ccc(CNCC(C(=O)OCCN(C)C)c3ccccc3)s2)cc1OC` (stereo partly drawn) [Example 22, [(1S)-2-(3,5-dichloro-1-oxido-pyridin-1-ium-4-yl)-1-(3,4-dimethoxyphenyl)ethyl] 5-[[[3-(2-dimethylaminoethyloxy)-3-oxo-2-phenyl-propyl]amino]methyl]thiophene-2-carboxylate], the IC50 at Human recombinant PDE4B2 (setting [2]) and on Human M3 receptor (setting [1]) was 1 to 10 nM in each case.
Take `COc1ccc([C@H](Cc2c(Cl)c[n+]([O-])cc2Cl)OC(=O)c2ccc(CNCC(C(=O)O[C@H]3CN4CCC3CC4)c3ccccc3)s2)cc1OC` (single isomer, unassigned) [Example 20]: the 50% inhibitory concentration (IC50) was 1 to 10 nM at Human recombinant PDE4B2 and < 1 nM at Human M3 receptor (M3 IC50 Activity).
For the compound `COc1ccc([C@H](Cc2c(Cl)c[n+]([O-])cc2Cl)OC(=O)c2ccc(CNCC(C)(C(=O)OC3CCN(C)CC3)c3ccccc3)s2)cc1OC` (stereo partly drawn) [Example 25, [(1S)-2-(3,5-dichloro-1-oxido-pyridin-1-ium-4-yl)-1-(3,4-dimethoxyphenyl)ethyl] 5-[[[2-methyl-3-[(1-methyl-4-piperidyl)oxy]-3-oxo-2-phenyl-propyl]amino]methyl]thiophene-2-carboxylate], the half-inhibitory concentration (IC50) was in the range of 1 to 10 nM on Human recombinant PDE4B2 (setting [2]) and 10 to 100 nM at Human M3 receptor (setting [1]).
Regarding `COc1ccc([C@H](Cc2c(Cl)c[n+]([O-])cc2Cl)OC(=O)c2ccc(CNC3CC(C(=O)O[C@H]4CN5CCC4CC5)(c4ccccc4)C3)s2)cc1OC` (stereo partly drawn) [Example 36, [(1S)-2-(3,5-dichloro-1-oxido-pyridin-1-ium-4-yl)-1-(3,4-dimethoxyphenyl)ethyl] 5-[[[3-phenyl-3-[(3R)-quinuclidin-3-yl]oxycarbonyl-cyclobutyl]amino]methyl]thiophene-2-carboxylate], the IC50 at Human recombinant PDE4B2 (read-out: PDE4B2 IC50 Activity) was in the range of 1 to 10 nM.
As for `COc1ccc([C@H](Cc2c(Cl)c[n+]([O-])cc2Cl)OC(=O)c2ccc(CNCC(C)(C(=O)O[C@H]3CN4CCC3CC4)c3ccccc3)s2)cc1OC` (stereo partly drawn) [Example 7, [(1S)-2-(3,5-dichloro-1-oxido-pyridin-1-ium-4-yl)-1-(3,4-dimethoxyphenyl)ethyl] 5-[[[2-methyl-3-oxo-2-phenyl-3-[(3R)-quinuclidin-3-yl]oxy-propyl]amino]methyl]thiophene-2-carboxylate], the concentration for half-maximal inhibition (IC50) on Human recombinant PDE4B2 (read-out: PDE4B2 IC50 Activity) fell in the range of 1 to 10 nM.
At Human M3 receptor (M3 IC50 Activity), `COc1ccc([C@H](Cc2c(Cl)c[n+]([O-])cc2Cl)OC(=O)c2ccc(CNCC(C)(C(=O)O[C@H]3CN4CCC3CC4)c3ccccc3)s2)cc1OC` (stereo partly drawn) [Example 30, [(1S)-2-(3,5-dichloro-1-oxido-pyridin-1-ium-4-yl)-1-(3,4-dimethoxyphenyl)ethyl] 5-[[[2-methyl-3-oxo-2-phenyl-3-[(3R)-quinuclidin-3-yl]oxy-propyl]amino]methyl]thiophene-2-carboxylate] registered an IC50 of 1 to 10 nM.
On to `COc1ccc([C@H](Cc2c(Cl)c[n+]([O-])cc2Cl)OC(=O)c2ccc(CN3CC(C(=O)O[C@H]4CN5CCC4CC5)(c4ccccc4)C3)s2)cc1OC` [Example 15, [(3R)-quinuclidin-3-yl]-1-[[5-[(1S)-2-(3,5-dichloro-1-oxido-pyridin-1-ium-4-yl)-1-(3,4-dimethoxyphenyl)ethoxy]carbonyl-2-thienyl]methyl]-3-phenyl-azetidine-3-carboxylate], for which the half-inhibitory concentration (IC50) on Human recombinant PDE4B2 lay within 1 to 10 nM.
Take `COc1ccc([C@H](Cc2c(Cl)c[n+]([O-])cc2Cl)OC(=O)c2ccc(CNCC(C(=O)OC3CCN(C)CC3)c3ccccc3)s2)cc1OC` (stereo partly drawn) [Example 5, [(1S)-2-(3,5-dichloro-1-oxido-pyridin-1-ium-4-yl)-1-(3,4-dimethoxyphenyl)ethyl] 5-[[[3-[(1-methyl-4-piperidyl)oxy]-3-oxo-2-phenyl-propyl]amino]methyl]thiophene-2-carboxylate]: at Human M3 receptor (setting [1]), the 50% inhibitory concentration (IC50) fell in the range of 1 to 10 nM.
